Source: BindingDB's records for doi:10.1021/np0302302 (Schering-Plough Research Institute, 2003)

Target: DNA primase DnaG (Escherichia coli) (UniProt P0ABS5)
Assay: Inhibition of Escherichia coli DNA primase after 1 hr by [3H]rNTPs incorporation assay

Chain of DNA primase DnaG (Escherichia coli) (P0ABS5 whole entry, looked up): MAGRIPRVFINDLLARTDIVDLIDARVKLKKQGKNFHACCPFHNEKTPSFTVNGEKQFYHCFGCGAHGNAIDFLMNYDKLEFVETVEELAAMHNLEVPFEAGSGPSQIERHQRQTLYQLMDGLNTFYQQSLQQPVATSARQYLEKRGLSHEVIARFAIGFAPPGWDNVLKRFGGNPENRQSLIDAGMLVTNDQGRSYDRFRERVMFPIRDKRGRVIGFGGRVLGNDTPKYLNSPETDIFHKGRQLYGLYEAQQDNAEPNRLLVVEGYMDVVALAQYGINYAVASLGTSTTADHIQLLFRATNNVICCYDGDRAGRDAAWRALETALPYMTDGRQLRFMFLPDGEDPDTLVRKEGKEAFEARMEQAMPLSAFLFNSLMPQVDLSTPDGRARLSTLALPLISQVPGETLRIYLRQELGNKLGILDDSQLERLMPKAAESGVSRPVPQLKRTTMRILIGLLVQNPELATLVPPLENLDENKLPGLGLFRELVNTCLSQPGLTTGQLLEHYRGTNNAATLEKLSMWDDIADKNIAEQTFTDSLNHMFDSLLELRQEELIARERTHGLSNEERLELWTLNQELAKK

C[C@H]1CCCC[C@H]2C(=O)C=C[C@H](O)[C@@H]2CC(=O)O1 [(4S,8aR,12S,12aR)-12-hydroxy-4-methyl-4,5,6,7,8,8a-hexahydro-1H-benzo[d]oxecine-2,9(12H,12aH)-dione]
EC50: 70 µM
